Measurements taken from patent US12479827B2, “Heteroaromatic carboxamide derivatives as plasma kallikrein inhibitors” (Boehringer Ingelheim International GmbH, priority 2020, dated 2025).

Experiments:
[1] = molecular target: T1, Human PKK (Homo sapiens, UniProt P03952); test: Inhibition of PKK using an endpoint assay (human PKK); type: biochemical; settings: fluorogenic substrate H-Pro-Phe-Arg-AMC, 1 h room temperature, method names human or rat PKK, table does not say which
T1 construct: purchased Enzyme Research Laboratories
Procedure, shortened: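 Endpoint fluorescence (ex 355 nm, em 460 nm) after stopping with 1 μM final PPACK II. Buffer: Tris 100 mM pH 7.8, NaCl 150 mM, BSA 0.1%, Tween20 0.05%, with 1% DMSO present; enzyme is human plasma kallikrein.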

[2] = molecular target: T2, PKK in kaolin activated human platelet poor plasma (Homo sapiens, UniProt P03952); test: Inhibition of PKK in kaolin activated human PPP; type: biochemical; settings: 25-750 μg/mL kaolin, global fit, text b200 calls the values IC90;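 also: readout is the rate of fluorogenic substrate cleavage in rfu per min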
T2 construct: Platelet poor plasma (PPP) obtained from human wholeblood; from tissue
Procedure: Platelet poor plasma (PPP) obtained from human wholeblood, anticoagulated with Na-Citrate, is incubated with various concentrations of the test compound together with either 25, 75, 250, or 750 μg/mL kaolin in assay buffer for 20 min at 37° C. such that for each kaolin dose used a concentration response is obtained for the test compound.

T2 sequence (P03952 391-638 limits assumed): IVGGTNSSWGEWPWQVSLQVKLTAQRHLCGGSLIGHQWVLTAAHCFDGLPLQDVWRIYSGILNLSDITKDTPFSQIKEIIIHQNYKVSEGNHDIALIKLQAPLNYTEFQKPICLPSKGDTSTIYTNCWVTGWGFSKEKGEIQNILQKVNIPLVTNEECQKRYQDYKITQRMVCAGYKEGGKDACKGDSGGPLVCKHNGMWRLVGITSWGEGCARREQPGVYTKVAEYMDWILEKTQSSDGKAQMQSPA
T2 sequence (P03952 20-390 limits assumed): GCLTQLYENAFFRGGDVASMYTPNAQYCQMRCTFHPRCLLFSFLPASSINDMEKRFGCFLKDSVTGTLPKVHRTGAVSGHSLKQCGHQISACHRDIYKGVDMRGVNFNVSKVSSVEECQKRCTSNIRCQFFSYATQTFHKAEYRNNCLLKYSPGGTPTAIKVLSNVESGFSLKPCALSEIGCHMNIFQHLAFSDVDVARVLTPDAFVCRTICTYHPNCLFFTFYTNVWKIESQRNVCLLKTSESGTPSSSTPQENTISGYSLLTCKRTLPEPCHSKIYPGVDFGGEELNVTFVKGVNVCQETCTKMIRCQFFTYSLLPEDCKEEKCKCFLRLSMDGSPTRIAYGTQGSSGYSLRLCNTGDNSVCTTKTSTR
T1 sequence (P03952 20-390 limits assumed): as above
T1 sequence (P03952 391-638 limits assumed): as the sequence (P03952 391-638 limits assumed) above

SMILES	IC50 [1]	IC50 [2]
Cn1cnc2c1CC[C@H]2NC(=O)c1cn(Cc2ccc(N3CC4CC4C3)cc2CO)cn1 (stereo partly drawn) [Example 207, 1-[(4-{3-azabicyclo[3.1.0]hexan-3-yl}-2-(hydroxymethyl)phenyl)methyl]-N-[(4R)-1-methyl-1H,4H,5H,6H-cyclopenta[d]imidazol-4-yl]-1H-imidazole-4-carboxamide]	3.2 nM	745 nM
Cn1cnc2c1CC[C@H]2NC(=O)c1cnn(Cc2ccc(N3CC4CC4C3)nc2C(C)(C)C#N)c1 (stereo partly drawn) [Example 65, 1-[(6-{3-Azabicyclo[3.1.0]hexan-3-yl}-2-(1-cyano-1-methylethyl)pyridin-3-yl)methyl]-N-[(4R)-1-methyl-1H,4H,5H,6H-cyclopenta[d]-imidazol-4-yl]-1H-pyrazole-4-carboxamide]	1.4 nM	1230 nM
Cn1cnc2c1CC[C@H]2NC(=O)c1cnn(Cc2ccc(N3CC4(CC4)C3)nc2Cl)c1 [Example 56, 1-[(6-{5-Azaspiro[2.3]hexan-5-yl}-2-chloropyridin-3-yl)methyl]-N-[(4R)-1-methyl-1H,4H,5H,6H-cyclopenta[d]imidazol-4-yl]-1H-pyrazole-4-carboxamide]	1.8 nM	586 nM
Cc1nc(N2CC3(CC3)C2)ccc1Cn1cc(C(=O)N[C@@H]2CCc3c2ncn3C)nn1 [Example 68, 1-[(6-{5-Azaspiro[2.3]hexan-5-yl}-2-methylpyridin-3-yl)-methyl]-N-[(4R)-1-methyl-1H,4H,5H,6H-cyclo-penta[d]imidazol-4-yl]-1H-1,2,3-triazole-4-carboxamide]	1.4 nM	637 nM
Cn1cnc2c1CC[C@H]2NC(=O)c1ccc(Cc2ccc(N3CC4C(C3)C4(F)F)nc2CO)s1 (stereo partly drawn) [Example 185, 5-[(6-{6,6-Difluoro-3-azabicyclo[3.1.0]hexan-3-yl}-2-(hydroxymethyl)pyridin-3-yl)methyl]-N-[(4R)-1-methyl-1H,4H,5H,6H-cyclopenta-[d]imidazol-4-yl]thiophene-2-carboxamide]	10.9 nM	2270 nM
Cc1nc(N2CC3CC3C2)ccc1Cc1ncc(C(=O)N[C@@H]2CCc3c2ncn3C)o1 (stereo partly drawn) [Example 154, 2-[(6-{3-Azabicyclo[3.1.0]hexan-3-yl}-2-methylpyridin-3-yl)methyl]-N-[(4R)-1-methyl-1H,4H,5H,6H-cyclopenta[d]imidazol-4-yl]-1,3-oxazole-5-carboxamide]	9.9 nM	4270 nM
CCOc1nc(N2CC3C(C2)C3(F)F)ccc1Cn1cnc(C(=O)N[C@@H]2CCc3c2ncn3C)c1 (stereo partly drawn) [Example 102, 1-[(6-{6,6-Difluoro-3-azabicyclo[3.1.0]hexan-3-yl}-2-ethoxypyridin-3-yl)methyl]-N-[(4R)-1-methyl-1H,4H,5H,6H-cyclopenta[d]imidazol-4-yl]-1H-imidazole-4-carboxamide]	2.1 nM	1440 nM
Cn1cnc2c1CC[C@H]2NC(=O)c1cn(Cc2ccc(N3CC4C(C3)C4(F)F)cc2F)cn1 (stereo partly drawn) [Example 212, 1-[(4-{6,6-difluoro-3-azabicyclo[3.1.0]hexan-3-yl}-2-fluorophenyl)methyl]-N-[(4R)-1-methyl-1H,4H,5H,6H-cyclopenta[d]imidazol-4-yl]-1H-imidazole-4-carboxamide]	2.1 nM	1890 nM
CCc1nc(N2CC3C(C2)C3(F)F)ccc1Cn1cnc(C(=O)N[C@@H]2CCc3c2ncn3C)c1 (stereo partly drawn) [Example 76, 1-[(6-{6,6-Difluoro-3-azabicyclo[3.1.0]hexan-3-yl}-2-ethylpyridin-3-yl)methyl]-N-[(4R)-1-methyl-1H,4H,5H,6H-cyclopenta[d]imidazol-4-yl]-1H-imidazole-4-carboxamide]	0.6 nM	270 nM
CCCc1nc(N2CC3C(C2)C3(F)F)ccc1Cn1cc(C(=O)N[C@@H]2CCc3c2ncn3C)cn1 (stereo partly drawn) [Example 69, 1-[(6-{6,6-Difluoro-3-azabicyclo[3.1.0]hexan-3-yl}-2-propylpyridin-3-yl)methyl]-N-[(4R)-1-methyl-1H,4H,5H,6H-cyclopenta[d]imidazol-4-yl]-1H-pyrazole-4-carboxamide]	0.9 nM	328 nM

More lines, in order of falling IC50 [1], values ahead:

IC50 [1]	IC50 [2]	SMILES
151 nM	9310 nM	Cn1cnc2c1CC[C@H]2NC(=O)c1cnn(Cc2ncc(N3CC4CC4C3)cn2)c1 (stereo partly drawn) [Example 71, 1-[(5-{3-Azabicyclo[3.1.0]hexan-3-yl}pyrimidin-2-yl)methyl]-N-[(4R)-1-methyl-1H,4H,5H,6H-cyclopenta[d]imidazol-4-yl]-1H-pyrazole-4-carboxamide]
15.4 nM	4100 nM	Cc1nc(N2CC3C(C2)C3(F)F)ccc1Cc1ncc(C(=O)N[C@@H]2CCc3c2ncn3C)o1 (stereo partly drawn) [Example 155, 2-[(6-{6,6-Difluoro-3-azabicyclo[3.1.0]hexan-3-yl}-2-methylpyridin-3-yl)methyl]-N-[(4R)-1-methyl-1H,4H,5H,6H-cyclopenta[d]imidazol-4-yl]-1,3-oxazole-5-carboxamide]
5.5 nM	249 nM	Cn1cnc2c1CC[C@H]2NC(=O)c1cnn(Cc2ccc(N3CC4(CC4)C3)nc2CO)c1 [Example 79, 1-[(6-{5-Azaspiro[2.3]hexan-5-yl}-2-(hydroxymethyl)-pyridin-3-yl)methyl]-N-[(4R)-1-methyl-1H,4H,5H,6H-cyclopenta[d]imidazol-4-yl]-1H-pyrazole-4-carboxamide]
4.2 nM	389 nM	CCOCc1nc(N2CC3C(C2)C3(F)F)ccc1Cn1cc(C(=O)N[C@@H]2CCc3c2ncn3C)cn1 (stereo partly drawn) [Example 179, 1-[(6-{6,6-Difluoro-3-azabicyclo[3.1.0]hexan-3-yl}-2-(ethoxymethyl)pyridin-3-yl)methyl]-N-[(4R)-1-methyl-1H,4H,5H,6H-cyclopenta[d]imidazol-4-yl]-1H-pyrazole-4-carboxamide]
3.7 nM	2170 nM	Cn1cnc2c1CC[C@H]2NC(=O)c1cnn(Cc2cnc(N3CC4CC4C3)cc2Cl)c1 (stereo partly drawn) [Example 99, 1-[(6-{3-Azabicyclo[3.1.0]hexan-3-yl}-4-chloropyridin-3-yl)methyl]-N-[(4R)-1-methyl-1H,4H,5H,6H-cyclopenta[d]imidazol-4-yl]-1H-pyrazole-4-carboxamide]
3.1 nM	253 nM	COCc1nc(N2CC3C(C2)C3(F)F)ccc1Cn1cc(C(=O)N[C@@H]2CCc3c2ncn3C)cn1 (stereo partly drawn) [Example 2, 1-[(6-{6,6-Difluoro-3-azabicyclo[3.1.0]hexan-3-yl}-2-(methoxymethyl)pyridin-3-yl)methyl]-N-[(4R)-1-methyl-1H,4H,5H,6H-cyclopenta[d]-imidazol-4-yl]-1H-pyrazole-4-carboxamide]
2.8 nM	307 nM	COCc1nc(N2CC3CC3C2)ccc1Cn1cc(C(=O)N[C@@H]2CCc3c2ncn3C)nn1 (stereo partly drawn) [Example 92, 1-[(6-{3-Azabicyclo[3.1.0]hexan-3-yl}-2-(methoxymethyl)-pyridin-3-yl)methyl]-N-[(4R)-1-methyl-1H,4H,5H,6H-cyclo-penta[d]imidazol-4-yl]-1H-1,2,3-triazole-4-carboxamide]
2 nM	286 nM	Cn1cnc2c1CC[C@H]2NC(=O)c1cn(Cc2ccc(N3CC4C(C3)C4(F)F)nc2F)nn1 (stereo partly drawn) [Example 25, 1-[(6-{6,6-Difluoro-3-azabicyclo[3.1.0]hexan-3-yl}-2-fluoropyridin-3-yl)methyl]-N-[(4R)-1-methyl-1H,4H,5H,6H-cyclopenta[d]imidazol-4-yl]-1H-1,2,3-triazole-4-carboxamide]
2 nM	203 nM	Cn1cnc2c1CC[C@H]2NC(=O)c1cn(Cc2ccc(N3CC4C(C3)C4(F)F)cn2)cn1 (stereo partly drawn) [Example 53, 1-[(5-{6,6-Difluoro-3-azabicyclo[3.1.0]hexan-3-yl}pyridin-2-yl)methyl]-N-[(4R)-1-methyl-1H,4H,5H,6H-cyclopenta[d]imidazol-4-yl]-1H-imidazole-4-carboxamide]
1.9 nM	525 nM	Cn1cnc2c1CC[C@H]2NC(=O)c1cc(Cc2ccc(N3CC4CC4C3)nc2CO)n[nH]1 (stereo partly drawn) [Example 220, 3-[(6-{3-Azabicyclo[3.1.0]hexan-3-yl}-2-(hydroxymethyl)pyridin-3-yl)methyl]-N-[(4R)-1-methyl-1H,4H,5H,6H-cyclopenta[d]imidazol-4-yl]-1H-pyrazole-5-carboxamide]
1.5 nM	282 nM	Cn1cnc2c1CC[C@H]2NC(=O)c1cn(Cc2ccc(N3CC4CC4C3)nc2CO)cn1 (stereo partly drawn) [Example 98, 1-[(6-{3-Azabicyclo[3.1.0]hexan-3-yl}-2-(hydroxymethyl)pyridin-3-yl)methyl]-N-[(4R)-1-methyl-1H,4H,5H,6H-cyclopenta[d]imidazol-4-yl]-1H-imidazole-4-carboxamide]
1.5 nM	431 nM	CCc1nc(N2CC3C(C2)C3(F)F)ccc1Cc1cc(C(=O)N[C@@H]2CCc3c2ncn3C)n(CC)n1 (stereo partly drawn) [Example 161, 3-[(6-{6,6-Difluoro-3-azabicyclo[3.1.0]hexan-3-yl}-2-ethylpyridin-3-yl)methyl]-1-ethyl-N-[(4R)-1-methyl-1H,4H,5H,6H-cyclopenta[d]imidazol-4-yl]-1H-pyrazole-5-carboxamide]
0.8 nM	590 nM	Cn1cnc2c1CC[C@H]2NC(=O)c1cn(Cc2ccc(N3CC4C(C3)C4(F)F)cc2Cl)cn1 (stereo partly drawn) [Example 211, 1-[(2-chloro-4-{6,6-difluoro-3-azabicyclo-[3.1.0]hexan-3-yl}phenyl)methyl]-N-[(4R)-1-methyl-1H,4H,5H,6H-cyclopenta[d]imidazol-4-yl]-1H-imidazole-4-carboxamide]
0.6 nM	80 nM	Cn1cnc2c1CC[C@H]2NC(=O)c1cnn(Cc2ccc(N3CC4C(C3)C4(F)F)cc2C#N)c1 (stereo partly drawn) [Example 208, 1-[(2-cyano-4-{6,6-difluoro-3-azabicyclo-[3.1.0]hexan-3-yl}phenyl)methyl]-N-[(4R)-1-methyl-1H,4H,5H,6H-cyclopenta[d]imidazol-4-yl]-1H-pyrazole-4-carboxamide]
